pIC50: −log10 of the molar value. Read-outs that look alike come from different tables or passages of the source.
How the values were obtained:
[1] = target: T1, purified recombinant human Aggrecanase-1 (rAgg1) (Homo sapiens, UniProt O75173); assay: In vitro fluorescence screen for Aggrecanase-1 inhibitors; format: biochemical; parameters: Agg1 % at concentration: scale not given here; settings: for pIC50: read-out: Agg1 IC50
T1 sequence (O75173 213-837): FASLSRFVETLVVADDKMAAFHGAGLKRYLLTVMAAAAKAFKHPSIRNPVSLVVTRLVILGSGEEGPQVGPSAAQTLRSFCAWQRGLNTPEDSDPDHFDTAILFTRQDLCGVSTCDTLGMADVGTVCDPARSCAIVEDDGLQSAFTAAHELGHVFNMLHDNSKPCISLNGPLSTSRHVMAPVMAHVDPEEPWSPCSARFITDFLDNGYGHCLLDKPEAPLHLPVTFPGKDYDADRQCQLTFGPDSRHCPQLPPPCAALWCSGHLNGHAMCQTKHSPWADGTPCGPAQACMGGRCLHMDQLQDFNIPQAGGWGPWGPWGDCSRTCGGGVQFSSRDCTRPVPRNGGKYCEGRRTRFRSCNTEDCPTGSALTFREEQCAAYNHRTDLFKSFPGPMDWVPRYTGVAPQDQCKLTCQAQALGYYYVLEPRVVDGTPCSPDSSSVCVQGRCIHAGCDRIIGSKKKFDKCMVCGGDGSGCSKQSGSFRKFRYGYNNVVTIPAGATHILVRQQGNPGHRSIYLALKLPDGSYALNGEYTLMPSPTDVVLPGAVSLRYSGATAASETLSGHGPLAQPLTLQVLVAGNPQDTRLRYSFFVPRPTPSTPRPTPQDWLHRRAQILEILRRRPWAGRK

[2] = target: T2, purified recombinant human Aggrecanase-2 (Ag2t-Phe628-Strep) (Homo sapiens, UniProt Q9UNA0); assay: In vitro fluorescence screen for Aggrecanase-2 inhibitors; format: biochemical; settings: for pIC50: read-out: Agg 2 IC50
T2 construct: the form used is denoted as Ag2t-Phe628-Strep (MW=41,737)
T2 sequence (Q9UNA0 262-628): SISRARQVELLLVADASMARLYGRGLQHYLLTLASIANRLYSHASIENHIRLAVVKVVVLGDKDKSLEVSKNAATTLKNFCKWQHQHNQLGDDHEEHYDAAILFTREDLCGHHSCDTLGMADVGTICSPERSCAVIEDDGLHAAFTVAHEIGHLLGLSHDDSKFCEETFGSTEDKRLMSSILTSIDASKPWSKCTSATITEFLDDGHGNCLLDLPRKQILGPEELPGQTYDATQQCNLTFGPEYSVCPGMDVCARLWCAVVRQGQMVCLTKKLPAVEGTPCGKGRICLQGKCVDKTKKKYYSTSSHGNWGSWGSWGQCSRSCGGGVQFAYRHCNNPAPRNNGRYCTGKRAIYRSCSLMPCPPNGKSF

## O=C(O)CC[C@H](NC(=O)c1ccc(-c2ccccc2)cc1)C(=O)NCCc1ccc(-c2ccc(C(F)(F)F)cc2)cc1 [Example 10A, N^2-(biphenyl-4-ylcarbonyl)-N^1-{2-[4′-(trifluoromethyl)biphenyl-4-yl]ethyl}-L-α-glutamine]
[1]; Table 1
  pIC50: 6.08
[2]; Table 1
  pIC50: 5.68

## O=C(O)CC[C@H](NC(=O)c1ccc2c(c1)C(=O)c1ccccc1-2)C(=O)NCc1ccccc1 [Example 8IIIII, N^1-benzyl-N^2-[(9-oxo-9H-fluoren-2-yl)carbonyl]-L-α-glutamine]
[1]; Table 2
  pIC50: 6.09
[2]; Table 2
  pIC50: 5.72

## O=C(O)CC[C@H](NC(=O)c1ccc(-c2ccccc2)cc1)C(=O)NCCC(c1ccccc1)c1ccccc1 [Example 8OOO, N^2-(biphenyl-4-ylcarbonyl)-N^1-(3,3-diphenylpropyl)-L-α-glutamine]
[1]; Table 1
  pIC50: 6.55
[2]; Table 1
  pIC50: 6.00

## C[C@@H](CNC(=O)[C@H](CCC(=O)O)NC(=O)c1ccc2c(c1)Cc1ccccc1-2)c1ccccc1 [Example 8JJJJJJ, N^2-(9H-fluoren-2-ylcarbonyl)-N-[(2R)-2-phenylpropyl]-L-α-glutamine]
[1]; Table 2
  pIC50: 6.52
[2]; Table 2
  pIC50: 6.03

## CC(C)(Cc1ccc(F)cc1)NC(=O)[C@H](CCC(N)=O)NC(=O)c1ccc(-c2ccccc2)cc1 [Example 8LLLLLL, N^2-(biphenyl-4-ylcarbonyl)-N^1-[2-(4-fluorophenyl)-1,1-dimethylethyl]-L-α-glutamamide]
[1]; Table 2
  pIC50: < 4.60
[2]; Table 2
  pIC50: < 4.00

## CC(C)(Cc1ccc(Cl)cc1)NC(=O)[C@H](CCC(=O)O)NC(=O)c1ccc(-c2cccnc2)s1 [Example 8JJJJJJJJ, N-[2-(4-chlorophenyl)-1,1-dimethylethyl]-N^2-[(5-pyridin-3-yl-2-thienyl)carbonyl]-L-α-glutamine]
[1]; Table 3
  pIC50: > 7.52
[2]; Table 3
  pIC50: 5.60 to 6.10

## COc1cc(CNC(=O)[C@H](CCC(=O)O)NC(=O)c2ccc(-c3ccc(OCc4cc(C)cc(C)c4)cc3)cc2)cc(OC)c1OC [Example 19D, N^2-({4′-[(3,5-dimethylbenzyl)oxy]biphenyl-4-yl}carbonyl)-N-(3,4,5-trimethoxybenzyl)-L-α-glutamine]
[1]; Table 2
  pIC50: 6.68
[2]; Table 2
  pIC50: 6.65

## CC(C)(Cc1ccccc1)NC(=O)[C@H](CCC(=O)O)NC(=O)c1ccc(-c2ccccc2)o1 [N-(1,1-dimethyl-2-phenylethyl)-N^2-(5-phenyl-2-furoyl)-L-α-glutamine]
[1]; Table 3, at 8300 (nM)
  Agg1 % at concentration: 30%
[2]; Table 3, at 25000 (nM)
  Agg 2 % at concentration: 28%

## Cc1cccc(CNC(=O)[C@H](CCC(=O)O)NC(=O)c2ccc(-c3cccc(CBr)c3)cc2)c1 [Example 8TTTTTTT, N^2-{[3′-(bromomethyl)biphenyl-4-yl]carbonyl}-N-(3-methylbenzyl)-L-α-glutamine]
[1]; Table 3
  pIC50: 6.15
[2]; Table 3, at 11000 (nM), read-out: Agg 2 % at concentration
  inhibition at 11 µM: 20%

## O=C(O)CC[C@H](NC(=O)c1ccc(-c2ccccc2)cc1)C(=O)NCC12CC3CC(CC(C3)C1)C2 [Example 8AAAAAA, N-(1-adamantylmethyl)-N^2-(biphenyl-4-ylcarbonyl)-L-α-glutamine]
[1]; Table 2
  pIC50: 6.27
[2]; Table 2
  pIC50: 5.75

## COc1cccc(COc2cccc(-c3ccc(C(=O)N[C@@H](CCC(=O)O)C(=O)NCc4cc(OC)c(OC)c(OC)c4)cc3)c2)c1 [Example 15M, N^2-({3′-[(3-methoxybenzyl)oxy]biphenyl-4-yl}carbonyl)-N-(3,4,5-trimethoxybenzyl)-L-α-glutamine]
[1]; Table 3
  pIC50: > 7.52
[2]; Table 3
  pIC50: 6.10

## CC(C)(Cc1ccc(F)cc1)NC(=O)[C@H](CCC(=O)O)NC(=O)c1ccc(-c2ccc3c(c2)OCO3)cc1 [Example 8HHHHHH, N^2-[4-(1,3-benzodioxol-5-yl)benzoyl]-N-[2-(4-fluorophenyl)-1,1-dimethylethyl]-L-α-glutamine]
[1]; Table 2
  pIC50: 7.42
[2]; Table 2
  pIC50: 7.34

## COc1cc(COc2ccc(-c3ccc(C(=O)N[C@@H](CCC(=O)O)C(=O)NC(C)(C)Cc4ccccc4)cc3)cc2)cc(OC)c1 [Example 19C, N^2-({4′-[(3,5-dimethoxybenzyl)oxy]biphenyl-4-yl}carbonyl)-N-(1,1-dimethyl-2-phenylethyl)-L-α-glutamine]
[1]; Table 2
  pIC50: 6.85
[2]; Table 2
  pIC50: 7.12

## CC(C)(Cc1ccccc1)NC(=O)[C@H](CCC(=O)O)NC(=O)c1ccc(-c2ccc(COc3ccc4c(c3)OCO4)cc2)cc1 [Example 15P, N^2-({4′-[(1,3-benzodioxol-5-yloxy)methyl]biphenyl-4-yl}carbonyl)-N-(1,1-dimethyl-2-phenylethyl)-L-α-glutamine]
[1]; Table 3
  pIC50: > 7.52
[2]; Table 3
  pIC50: 6.59

## CC(C)(Cc1ccc(F)cc1)NC(=O)[C@H](CCC(=O)O)NC(=O)c1ccc(Br)cc1 [N^2-(4-bromobenzoyl)-N-[2-(4-fluorophenyl)-1,1-dimethylethyl]-L-α-glutamine]
[1]; Table 3
  pIC50: 5.98
[2]; Table 3
  pIC50: 5.13

## CCCCN(C)C(=O)[C@H](CCC(=O)O)NC(=O)c1ccc2c(c1)Cc1ccccc1-2 [Example 8FFFFFF, N-butyl-N^2-(9H-fluoren-2-ylcarbonyl)-N-methyl-L-α-glutamine]
[1]; Table 2
  pIC50: 5.41
[2]; Table 2
  pIC50: 4.74

## C[C@H](NC(=O)[C@H](CCC(=O)O)NC(=O)c1ccc(-c2ccccc2)cc1)c1ccc(F)cc1 [Example 8RRRRR, N^2-(biphenyl-4-ylcarbonyl)-N1-[(1S)-1-(4-fluorophenyl)ethyl]-L-α-glutamine]
[1]; Table 2
  pIC50: 6.89
[2]; Table 2
  pIC50: 5.54

## CC(C)(Cc1ccccc1)NC(=O)[C@H](CCC(=O)O)NC(=O)c1ccc(-c2nccs2)cc1 [N-(1,1-dimethyl-2-phenylethyl)-N^2-[4-(1,3-thiazol-2-yl)benzoyl]-L-α-glutamine]
[1]; Table 3
  pIC50: 6.57
[2]; read-out: Agg 2 % at concentration
  inhibition at 25 µM: 62%

## C[C@@H](NC(=O)[C@H](CCC(=O)O)NC(=O)c1ccc(-c2ccccc2)cc1)c1ccccc1 [Example 8UUUUU, N^2-(biphenyl-4-ylcarbonyl)-N^1-[(1R)-1-phenylethyl]-L-α-glutamine]
[1]; Table 2
  pIC50: 6.50
[2]; Table 2
  pIC50: 5.67

## CC(C)(Cc1ccc(Cl)cc1)NC(=O)[C@H](CCC(=O)O)NC(=O)c1ccc(-c2ccc(F)c(F)c2)cc1 [Example 8ZZZZZZ, N-[2-(4-chlorophenyl)-1,1-dimethylethyl]-N^2-[(3′,4′-difluorobiphenyl-4-yl)carbonyl]-L-α-glutamine]
[1]; Table 3
  pIC50: > 7.52
[2]; Table 3
  pIC50: 6.92

## CCC(C)c1ccc(-c2ccc(C(=O)N[C@@H](CCC(=O)O)C(=O)NC(C)(C)Cc3ccccc3)cc2)cc1 (stereo partly drawn) [Example 17S, N^2-[(4′-sec-butylbiphenyl-4-yl)carbonyl]-N-(1,1-dimethyl-2-phenylethyl)-L-α-glutamine]
[1]; Table 2
  pIC50: 5.34
[2]; Table 2
  pIC50: 5.00

## O=C(O)CC[C@H](NC(=O)c1ccc(-c2ccccc2)cc1)C(=O)NCCc1ccc(-c2ccccc2)cc1 [Example 10C, N^2-(biphenyl-4-ylcarbonyl)-N^1-(2-biphenyl-4-ylethyl)-L-α-glutamine]
[1]; Table 1
  pIC50: 6.62
[2]; Table 1
  pIC50: < 5.30

## COc1cc(CNC(=O)[C@H](CCC(=O)O)NC(=O)c2ccc(-c3cccc(O)c3)cc2)cc(OC)c1OC [Example 17RR, N^2-[(3′-hydroxybiphenyl-4-yl)carbonyl]-N-(3,4,5-trimethoxybenzyl)-L-α-glutamine]
[1]; Table 2
  pIC50: > 7.52
[2]; Table 2
  pIC50: 7.59

## O=C(O)CC[C@H](NC(=O)c1cccc2c1Cc1ccccc1-2)C(=O)NCCCCCCO [Example 8WWWWW, N^2-(9H-fluoren-1-ylcarbonyl)-N^1-(6-hydroxyhexyl)-L-α-glutamine]
[1]; Table 2
  pIC50: < 4.77
[2]; Table 2
  pIC50: < 4.17

## COc1cccc(C#Cc2ccc(C(=O)N[C@@H](CCC(=O)O)C(=O)NCc3ccccc3)cc2)c1 [Example 12L, N-benzyl-N^2-{4-[(3-methoxyphenyl)ethynyl]benzoyl}-L-α-glutamine]
[1]; Table 2
  pIC50: ~4.66
[2]; Table 2
  pIC50: < 4.66

## COc1cc(CNC(=O)[C@H](CCC(=O)O)NC(=O)c2ccc(-c3c(C)cc(C)cc3C)cc2)cc(OC)c1OC [Example 17KK, N-(3,4,5-trimethoxybenzyl)-N^2-[(2′,4′,6′-trimethylbiphenyl-4-yl)carbonyl]-L-α-glutamine]
[1]; Table 2
  pIC50: < 4.60
[2]; Table 2
  pIC50: < 4.17

## CC(C)(Cc1ccccc1)NC(=O)[C@H](CCC(=O)O)NC(=O)c1ccc(-c2ccc(COc3cc(C(C)(C)C)cc(C(C)(C)C)c3)cc2)cc1 [Example 15Z, N^2-({4′-[(3,5-di-tert-butylphenoxy)methyl]biphenyl-4-yl}carbonyl)-N-(1,1-dimethyl-2-phenylethyl)-L-α-glutamine]
[1]; Table 2
  pIC50: 5.85
[2]; Table 2
  pIC50: 5.22
